From PMC10920834, “Synthesis, anticancer activity, and molecular docking of half-sandwich iron(II) cyclopentadienyl complexes with maleimide and phosphine or phosphite ligands” (Scientific Reports, 2024)

Key:
Format in all cases: cell-based, human
HL-60 cells [1] = test: Cell viability resazurin assay, HL-60 cells; details: for viability of HL-60 cells relative to control: ± SD
Procedure: (§1) The A549 (human non-small cell lung cancer) cell line was obtained from the American Type Culture Collection (ATCC) and cultured in Dulbecco's Modified Eagle Medium (DMEM) with 10% fetal bovine serum (FBS), 2 mM L-Glutamine, 25 mM HEPES and penicillin/streptomycin solution (100 U/ml and 100 µg/ml, respectively). The HL-60 (human promyelocytic leukemia) cell line was also obtained from the American Type Culture Collection (ATCC) and cultured in Iscove’s Modified Dulbecco's Medium (IMDM) with 15% fetal bovine serum (FBS), 2 mM L-Glutamine, 25 mM HEPES and penicillin/streptomycin solution (100 U/ml and 100 µg/ml, respectively). Both cell lines were cultured in flasks at 37 °C in 5% CO2 and sub-cultured every 2–3 days to maintain exponential growth.
(§2) Firstly, resazurin salt powder was dissolved in sterile 1 × PBS. Cells were then seeded on the 96-well plates in the count of 1 × 10^4 in the case of HL-60 cells and of 5 × 10^4 for PBM cells and of 5 × 10^3 for A549 cells per well. A549 cells were seeded 24 h prior to treatment with the complexes to allow cell adherence to 96-well plate. Iron(II) complexes were added to wells to obtain final concentrations of 0.5, 1, 2.5, 5, 10, 25, 50, 100 and 250 μM. Subsequently, plates were incubated at 37 °C in 5% CO2 for 2 h and 24 h. After that 10 μl of resazurin salt was added to each well and plates again were incubated in 37 °C in 5% CO2 for 2 h. Finally, fluorescence was measured with microplate reader Synergy HT (Bio-Tek Instruments, USA) using an excitation wavelength of 530/25 and an emission wavelength of 590/35 nm. The effects of iron(II) complexes were calculated as the percentage of control fluorescence. IC50 (half maximal inhibitory concentration) values were calculated using a website algorithm (https://www.aatbio.com/tools/ic50-calculator). All assays were performed in octuplicate.

A549 cells = test: Cell viability resazurin assay, A549 cells; details: for viability of A549 cells relative to control: ± SD
Procedure: as §1, §2

HL-60 cells [2] = test: Alkaline comet assay, HL-60 cells; details: 2 h incubation, 1-50 μM tested
Procedure: Selected iron(II) complexes were added to the suspension of the cells to give final concentrations of 1, 5, 10, 25 and 50 μM. HL-60 and A549 cells were incubated with the complexes for 2 h at 37 °C. The comet assay was performed under alkaline conditions according to the procedure of Tokarz et al.[45]. […] Next, the cells were lysed for 1 h at 4 °C in a buffer containing 2.5 M NaCl, 0.1 M EDTA, 10 mM Tris, 1% Triton X-100, pH 10. Following the lysis, the slides were placed in an electrophoresis unit. DNA was allowed to unwind for 20 min in the solution containing 300 mM NaOH and 1 mM EDTA, pH > 13. […] After separation, the slides were washed in water, drained, stained with 2 μg/ml DAPI and covered with cover slips. As a prevention from additional DNA damage, the procedure described above was conducted under limited light or in the dark. Each experiment included the positive control—cells incubated with H2O2 at 20 µM for 15 min on ice (data not shown).
The comets obtained after single cell gel electrophoresis were analysed in the following manner. […] Hundred images of singular comets were randomly selected from each sample and the mean value of DNA in comet tail was taken as an index of DNA damage (expressed in percent).

PBM cells = test: Cell viability resazurin assay, PBM cells; details: for viability of PBM cells relative to control: ± SD
Text: Peripheral blood mononuclear (PBM) cells were isolated from a leukocyte-buffy coat collected from the blood of healthy, non-smoking donors at the Blood Bank in Lodz, Poland. The study protocol received approval from the Committee for Research on Human Subjects of the University of Lodz (17/KBBN-UŁ/III/2019). The initial step of isolation process involved mixing buffy coats with PBS in a 1:1 ratio. Subsequently, the mixture was centrifuged using a density gradient of Lymphosep (Cytogen, Zgierz, Poland) at 2200 RPM for 20 min, employing the lowest values for acceleration and deceleration. PBM cells were collected and washed three times by centrifugation with 1 × PBS. Following isolation, the cells were suspended in RPMI 1640 medium.
as §2

CCOP(OCC)OCC.O=C1C=CC(=O)[N-]1.[C-]#[O+].[Fe+2].c1cc[cH-]c1 [3a]
viability of HL-60 cells relative to control (HL-60 cells [1]; 2 h incubation, 0.5 µM): 103.48 ± 2.11% | viability of HL-60 cells relative to control (HL-60 cells [1]; 2 h incubation, 1 µM): 105.44 ± 1% | viability of HL-60 cells relative to control (HL-60 cells [1]; 2 h incubation, 2.5 µM): 102.35 ± 0.54% | viability of HL-60 cells relative to control (HL-60 cells [1]; 2 h incubation, 5 µM): 100.13 ± 1.86% | viability of HL-60 cells relative to control (HL-60 cells [1]; 2 h incubation, 10 µM): 101.73 ± 3.47% | viability of HL-60 cells relative to control (HL-60 cells [1]; 2 h incubation, 25 µM): 97.68 ± 2.4% | viability of HL-60 cells relative to control (HL-60 cells [1]; 2 h incubation, 50 µM): 93.65 ± 1.73% | viability of HL-60 cells relative to control (HL-60 cells [1]; 2 h incubation, 100 µM): 87.54 ± 2.53% | viability of HL-60 cells relative to control (HL-60 cells [1]; 2 h incubation, 250 µM): 30.8 ± 1.55% | IC50 (HL-60 cells [1]; 24 h incubation): 15.9 µM | viability of HL-60 cells relative to control (HL-60 cells [1]; 24 h incubation, 0.5 µM): 107.33 ± 1.24% | viability of HL-60 cells relative to control (HL-60 cells [1]; 24 h incubation, 1 µM): 109.38 ± 4% | viability of HL-60 cells relative to control (HL-60 cells [1]; 24 h incubation, 2.5 µM): 112.36 ± 1.5% | viability of HL-60 cells relative to control (HL-60 cells [1]; 24 h incubation, 5 µM): 106.89 ± 3.43% | viability of HL-60 cells relative to control (HL-60 cells [1]; 24 h incubation, 10 µM): 89 ± 3.39% | viability of HL-60 cells relative to control (HL-60 cells [1]; 24 h incubation, 25 µM): 46.28 ± 0.82% | viability of HL-60 cells relative to control (HL-60 cells [1]; 24 h incubation, 50 µM): 38.62 ± 0.52% | viability of HL-60 cells relative to control (HL-60 cells [1]; 24 h incubation, 100 µM): 39.69 ± 0.83% | viability of HL-60 cells relative to control (HL-60 cells [1]; 24 h incubation, 250 µM): 17.5 ± 0.5% | viability of A549 cells relative to control (A549 cells; 2 h incubation, 0.5 µM): 100.11 ± 13.46% | viability of A549 cells relative to control (A549 cells; 2 h incubation, 1 µM): 89.02 ± 8.33% | viability of A549 cells relative to control (A549 cells; 2 h incubation, 2.5 µM): 86.36 ± 7.43% | viability of A549 cells relative to control (A549 cells; 2 h incubation, 5 µM): 85.49 ± 7.39% | viability of A549 cells relative to control (A549 cells; 2 h incubation, 10 µM): 83.61 ± 12.73% | viability of A549 cells relative to control (A549 cells; 2 h incubation, 25 µM): 82.29 ± 5.9% | viability of A549 cells relative to control (A549 cells; 2 h incubation, 50 µM): 82.69 ± 3.89% | viability of A549 cells relative to control (A549 cells; 2 h incubation, 100 µM): 74.97 ± 6.81% | viability of A549 cells relative to control (A549 cells; 2 h incubation, 250 µM): 68.50 ± 8.56% | IC50 (A549 cells; 24 h incubation): > 250 µM | cytotoxicity against A549 cells, in words (A549 cells; 24 h incubation): did not show cytotoxicity | viability of A549 cells relative to control (A549 cells; 24 h incubation, 0.5 µM): 80.91 ± 12.58% | viability of A549 cells relative to control (A549 cells; 24 h incubation, 1 µM): 70.97 ± 10.92% | viability of A549 cells relative to control (A549 cells; 24 h incubation, 2.5 µM): 68.70 ± 18.12% | viability of A549 cells relative to control (A549 cells; 24 h incubation, 5 µM): 68.55 ± 13.94% | viability of A549 cells relative to control (A549 cells; 24 h incubation, 10 µM): 71.63 ± 17.67% | viability of A549 cells relative to control (A549 cells; 24 h incubation, 25 µM): 131.92 ± 19.26% | viability of A549 cells relative to control (A549 cells; 24 h incubation, 50 µM): 131.87 ± 25.64% | viability of A549 cells relative to control (A549 cells; 24 h incubation, 100 µM): 153.54 ± 19.26% | viability of A549 cells relative to control (A549 cells; 24 h incubation, 250 µM): 95.62 ± 13.21% | A549 cell viability, increase with increasing concentrations to (A549 cells; 24 h incubation, concentration not given): 153% | DNA damage in HL-60 cells (alkaline comet assay), in words (HL-60 cells [2]): DNA damage at the concentrations of 10, 25 and 50 μM | viability of PBM cells relative to control (PBM cells; 2 h incubation, 0.5 µM): 83.62 ± 1.79% | viability of PBM cells relative to control (PBM cells; 2 h incubation, 1 µM): 82.59 ± 3.38% | viability of PBM cells relative to control (PBM cells; 2 h incubation, 2.5 µM): 83.52 ± 1.8% | viability of PBM cells relative to control (PBM cells; 2 h incubation, 5 µM): 86.67 ± 4.18% | viability of PBM cells relative to control (PBM cells; 2 h incubation, 10 µM): 89.89 ± 2.91% | viability of PBM cells relative to control (PBM cells; 2 h incubation, 25 µM): 98.19 ± 4.2% | viability of PBM cells relative to control (PBM cells; 2 h incubation, 50 µM): 98.5 ± 3.37% | viability of PBM cells relative to control (PBM cells; 2 h incubation, 100 µM): 97.79 ± 4.89% | viability of PBM cells relative to control (PBM cells; 2 h incubation, 250 µM): 98.17 ± 2.87% | IC50 (PBM cells; 24 h incubation): > 250 µM | viability of PBM cells relative to control (PBM cells; 24 h incubation, 0.5 µM): 102.49 ± 0.39% | viability of PBM cells relative to control (PBM cells; 24 h incubation, 1 µM): 104.14 ± 1.97% | viability of PBM cells relative to control (PBM cells; 24 h incubation, 2.5 µM): 104.31 ± 0.56% | viability of PBM cells relative to control (PBM cells; 24 h incubation, 5 µM): 102.43 ± 1.43% | viability of PBM cells relative to control (PBM cells; 24 h incubation, 10 µM): 99.21 ± 0.78% | viability of PBM cells relative to control (PBM cells; 24 h incubation, 25 µM): 98.34 ± 0.97% | viability of PBM cells relative to control (PBM cells; 24 h incubation, 50 µM): 98.58 ± 2.84% | viability of PBM cells relative to control (PBM cells; 24 h incubation, 100 µM): 102.37 ± 3.3% | viability of PBM cells relative to control (PBM cells; 24 h incubation, 250 µM): 94.72 ± 3.88%
